According to patent publication US20250136553A1, “ACYLSULFONAMIDE KAT6A INHIBITORS” (Olema Pharmaceuticals, Inc., priority 2023, published 2025):

Each molecule was assayed against human-KAT6A (MYST domain 507-778 aa) (Homo sapiens (Human), UniProt Q92794) (assay: KAT6A biochemical assay (TR-FRET)). Conditions: @ 1 μM; reported where IC50 could not be determined; read-out: Percent inhibition at specific concentration (KAT6A).
In short: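 KAT6A MYST domain preincubated with compound 30 min at 25° C, then reacted 60 min at 25° C with 200 nM biotin-H4 peptide and 600 nM acetyl-CoA (final). Europium anti-acetyl-lysine/streptavidin-APC TR-FRET read (Ex 340, Em 615/665 nm); % inhibition from 665/615 ratio, IC50 by sigmoidal fit.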

Sequence of human-KAT6A (MYST domain 507-778 aa) (Q92794 507-778): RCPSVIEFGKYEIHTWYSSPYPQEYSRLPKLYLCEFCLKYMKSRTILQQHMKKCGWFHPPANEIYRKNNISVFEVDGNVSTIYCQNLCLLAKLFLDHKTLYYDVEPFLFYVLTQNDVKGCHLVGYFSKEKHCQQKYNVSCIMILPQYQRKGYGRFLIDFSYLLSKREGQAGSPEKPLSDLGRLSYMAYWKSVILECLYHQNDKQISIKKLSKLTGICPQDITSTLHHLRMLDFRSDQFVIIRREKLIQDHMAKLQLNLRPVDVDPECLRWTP

inhibition at 1 µM [%] | SMILES
45 | COc1ccc(C(C)(C)C)cc1S(=O)(=O)NC(=O)c1ccc(Cn2cccn2)n(C)c1=O [Compound 267, 6-((1H-Pyrazol-1-yl)methyl)-N-((5-(tert-butyl)-2-methoxyphenyl)sulfonyl)-1-methyl-2-oxo-1,2-dihydropyridine-3-carboxamide]

Same assay, conditions: TR-FRET; histone H4 peptide 200 nM, acetyl-CoA 600 nM; read-out: KAT6A IC50

SMILES | IC50 [nM]
COc1cccc(OCC(F)(F)F)c1S(=O)(=O)NC(=O)c1ccc(Cn2cccn2)c(OC)n1 [Compound 227, 5-((1H-pyrazol-1-yl)methyl)-6-methoxy-N-((2-methoxy-6-(2,2,2-trifluoroethoxy)phenyl)sulfonyl)picolinamide] | 11
COc1cccc(OC)c1S(=O)(=O)NC(=O)c1ccc(Cn2cccn2)c(OC(F)(F)F)n1 [Compound 228, 5-((1H-pyrazol-1-yl)methyl)-N-((2,6-dimethoxyphenyl)sulfonyl)-6-(trifluoromethoxy)picolinamide] | 21
COc1cccc(OC)c1S(=O)(=O)NC(=O)c1ccc(Cn2cccn2)c(C2CC2)n1 [Compound 229, 5-((1H-pyrazol-1-yl)methyl)-6-cyclopropyl-N-((2,6-dimethoxyphenyl)sulfonyl)picolinamide] | 13
COc1cccc(OC)c1S(=O)(=O)NC(=O)c1ccc(Cn2cccn2)c(C(F)F)n1 [Compound 231, 5-((1H-pyrazol-1-yl)methyl)-6-(difluoromethyl)-N-((2,6-dimethoxyphenyl)sulfonyl)picolinamide] | 14
COc1ccccc1S(=N)(=O)NC(=O)c1ccc(Cn2cccn2)c(OC)n1 (centres unmarked) [Compound 232, 5-((1H-pyrazol-1-yl)methyl)-6-methoxy-N-(2-methoxyphenylsulfonimidoyl)picolinamide] | 95
COc1nc(C(=O)NS(=O)(=O)c2cccc3c2CCC3)ccc1Cn1cccn1 [Compound 233, 5-((1H-pyrazol-1-yl)methyl)-N-((2,3-dihydro-1H-inden-4-yl)sulfonyl)-6-methoxypicolinamide] | 94
COc1nc(C(=O)NS(=O)(=O)c2ccc3c(c2)CCC3)ccc1Cn1cccn1 [Compound 234, 5-((1H-pyrazol-1-yl)methyl)-N-((2,3-dihydro-1H-inden-5-yl)sulfonyl)-6-methoxypicolinamide] | 42
COc1cccc(OC(F)(F)F)c1S(=O)(=O)NC(=O)c1ccc(Cn2cccn2)c(OC)n1 [Compound 235, 5-((1H-pyrazol-1-yl)methyl)-6-methoxy-N-((2-methoxy-6-(trifluoromethoxy)phenyl)sulfonyl)picolinamide] | 7
COc1cccc(OC)c1S(=O)(=O)NC(=O)c1ccc(Cn2cccn2)c(C(F)(F)F)n1 [Compound 236, 5-((1H-pyrazol-1-yl)methyl)-N-((2,6-dimethoxyphenyl)sulfonyl)-6-(trifluoromethyl)picolinamide] | 4
COc1nc(C(=O)NS(=O)(=O)c2cccc(C(C)(C)O)c2)ccc1Cn1cccn1 [Compound 237, 5-((1H-pyrazol-1-yl)methyl)-N-((3-(2-hydroxypropan-2-yl)phenyl)sulfonyl)-6-methoxypicolinamide] | 44
COc1ccc(C(C)(O)C2CC2)cc1S(=O)(=O)NC(=O)c1ccc(Cn2cccn2)c(OC)n1 (centres unmarked) [Compound 240, 5-((1H-pyrazol-1-yl)methyl)-N-((5-(1-cyclopropyl-1-hydroxyethyl)-2-methoxyphenyl)sulfonyl)-6-methoxypicolinamide] | 11
COc1cccc(OCC2CC2)c1S(=O)(=O)NC(=O)c1ccc(Cn2cccn2)c(OC)n1 [Compound 245, 5-((1H-pyrazol-1-yl)methyl)-N-((2-(cyclopropylmethoxy)-6-methoxyphenyl)sulfonyl)-6-methoxypicolinamide] | 12
COc1cccc(OC2CCC2)c1S(=N)(=O)NC(=O)c1ccc(Cn2cccn2)c(OC)n1 (centres unmarked) [Compound 261, 5-((1H-pyrazol-1-yl)methyl)-N-(2-cyclobutoxy-6-methoxyphenylsulfonimidoyl)-6-methoxypicolinamide] | 38
CCc1nc(C(=O)NS(=O)(=O)c2c(OC)cccc2OC)ccc1Cn1cccn1 [Compound 265, 5-((1H-Pyrazol-1-yl)methyl)-N-((2,6-dimethoxyphenyl)sulfonyl)-6-ethylpicolinamide] | 14
COc1ccc(C(C)(C)CO)cc1S(=O)(=O)NC(=O)c1ccc(Cn2cccn2)c(OC)n1 [Compound 266, 5-((1H-Pyrazol-1-yl)methyl)-N-((5-(1-hydroxy-2-methylpropan-2-yl)-2-methoxyphenyl)sulfonyl)-6-methoxypicolinamide] | 10
COc1cc(C#Cc2cccnc2)cc(OC)c1S(=O)(=O)NC(=O)c1ccc(Cn2cccn2)c(OC)n1 [Compound 269, 5-((1H-Pyrazol-1-yl)methyl)-N-((2,6-dimethoxy-4-(pyridin-3-ylethynyl)phenyl)sulfonyl)-6-methoxypicolinamide] | 12
[2H]C([2H])([2H])Oc1cc(OC([2H])([2H])[2H])c(S(=O)(=O)NC(=O)c2ccc(Cn3cccn3)c(OC)n2)c(OC([2H])([2H])[2H])c1 [Compound 270, 5-((1H-pyrazol-1-yl)methyl)-6-methoxy-N-((2,4,6-tris(methoxy-d3)phenyl)sulfonyl)picolinamide] | 6
CCc1ccc(OC)c(S(=O)(=O)NC(=O)c2ncc(Cn3cccn3)c(OC)n2)c1 [Compound 271, 5-((1H-Pyrazol-1-yl)methyl)-N-((5-ethyl-2-methoxyphenyl)sulfonyl)-4-methoxypyrimidine-2-carboxamide] | 37
COc1cc(OC)c(S(=O)(=O)NC(=O)c2ncc(Cn3cccn3)c(OC)n2)c(OC)c1 [Compound 272, 5-((1H-pyrazol-1-yl)methyl)-4-methoxy-N-((2,4,6-trimethoxyphenyl)sulfonyl)pyrimidine-2-carboxamide] | 33

Further lines, results first:

IC50 [nM] | SMILES
17 | COc1ccc(C2CC2)c(OC)c1S(=O)(=O)NC(=O)c1ccc(Cn2cccn2)c(OC)n1 [Compound 223, 5-((1H-pyrazol-1-yl)methyl)-N-((3-cyclopropyl-2,6-dimethoxyphenyl)sulfonyl)-6-methoxypicolinamide]
11 | COc1cc(OC)c(S(=O)(=O)NC(=O)c2ccc(Cn3cccn3)c(OC)n2)c(OC)c1 [Compound 224, 5-((1H-pyrazol-1-yl)methyl)-6-methoxy-N-((2,4,6-trimethoxyphenyl)sulfonyl)picolinamide]
10 | CCc1ccc(OC)c(S(=O)(=O)NC(=O)c2ccc(Cn3cccn3)c(OC)n2)c1OC [Compound 225, 5-((1H-pyrazol-1-yl)methyl)-N-((3-ethyl-2,6-dimethoxyphenyl)sulfonyl)-6-methoxypicolinamide]
27 | COc1ccc(S(=O)(=O)NC(=O)c2ccc(Cn3cccn3)c(OC)n2)c(OC)c1 [Compound 226, 5-((1H-pyrazol-1-yl)methyl)-N-((2,4-dimethoxyphenyl)sulfonyl)-6-methoxypicolinamide]
11 | COc1ccc(C(C)(C)O)cc1S(=O)(=O)NC(=O)c1ccc(Cn2cccn2)c(OC)n1 [Compound 230, 5-((1H-pyrazol-1-yl)methyl)-N-((5-(2-hydroxypropan-2-yl)-2-methoxyphenyl)sulfonyl)-6-methoxypicolinamide]
37 | COc1cc(OC)c(S(=O)(=O)NC(=O)c2ccc(Cn3cccn3)c(OC)n2)cc1Cl [Compound 238, 5-((1H-pyrazol-1-yl)methyl)-N-((5-chloro-2,4-dimethoxyphenyl)sulfonyl)-6-methoxypicolinamide]
12 | CCC(C)(O)c1ccc(OC)c(S(=O)(=O)NC(=O)c2ccc(Cn3cccn3)c(OC)n2)c1 (centres unmarked) [Compound 239, 5-((1H-pyrazol-1-yl)methyl)-N-((5-(2-hydroxybutan-2-yl)-2-methoxyphenyl)sulfonyl)-6-methoxypicolinamide]
10 | COc1ccc(Cl)c(OC)c1S(=O)(=O)NC(=O)c1ccc(Cn2cccn2)c(OC)n1 [Compound 241, 5-((1H-pyrazol-1-yl)methyl)-N-((3-chloro-2,6-dimethoxyphenyl)sulfonyl)-6-methoxypicolinamide]
10 | COc1cc(OC)c(S(=O)(=O)NC(=O)c2ccc(Cn3cccn3)c(OC)n2)cc1Br [Compound 242, 5-((1H-pyrazol-1-yl)methyl)-N-((5-bromo-2,4-dimethoxyphenyl)sulfonyl)-6-methoxypicolinamide]
23 | COc1cccc(OC)c1S(=N)(=O)NC(=O)c1ccc(Cn2cccn2)c(OC)n1 (centres unmarked) [Compound 243, 5-((1H-pyrazol-1-yl)methyl)-N-(2,6-dimethoxyphenylsulfonimidoyl)-6-methoxypicolinamide]
14 | COc1cc(OC)c(S(=O)(=O)NC(=O)c2ccc(Cn3cccn3)c(OC)n2)cc1F [Compound 244, 5-((1H-pyrazol-1-yl)methyl)-N-((5-fluoro-2,4-dimethoxyphenyl)sulfonyl)-6-methoxypicolinamide]
9 | COc1cc(OC)c(S(=O)(=O)NC(=O)c2ccc(Cn3cccn3)c(OC)n2)c2c1CCO2 [Compound 253, 5-((1H-pyrazol-1-yl)methyl)-N-((4,6-dimethoxy-2,3-dihydrobenzofuran-7-yl)sulfonyl)-6-methoxypicolinamide]
115 | COc1ccc(S(=N)(=O)NC(=O)c2ccc(Cn3cccn3)c(OC)n2)c(OC)c1 (centres unmarked) [Compound 262, 5-((1H-pyrazol-1-yl)methyl)-N-(2,4-dimethoxyphenylsulfonimidoyl)-6-methoxypicolinamide]
36 | COc1cc(OC)c(S(=N)(=O)NC(=O)c2ccc(Cn3cccn3)c(OC)n2)c(OC)c1 (centres unmarked) [Compound 263, 5-((1H-pyrazol-1-yl)methyl)-6-methoxy-N-(2,4,6-trimethoxyphenylsulfonimidoyl)picolinamide]
16 | CCc1c(OC)cc(OC)c(S(=O)(=O)NC(=O)c2ccc(Cn3cccn3)c(OC)n2)c1OC [Compound 268, 5-((1H-Pyrazol-1-yl)methyl)-N-((3-ethyl-2,4,6-trimethoxyphenyl)sulfonyl)-6-methoxypicolinamide]
